Measured values taken from the supplement of paper PMC10307832.

How the values were obtained:
Experiment in all cases: relative viability (nuclei count vs DMSO), 5 days (fraction); higher = more cells survive
[1] = compound: Cn1cc(-c2cnn3c(N)c(Br)c([C@@H]4CCCNC4)nc23)cn1 + Cc1nc(NC(=O)N2CCC[C@H]2C(N)=O)sc1-c1ccnc(C(C)(C)C(F)(F)F)c1 [Alpelisib] (partner 2 µM)
Method in brief: (§1)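 A single step with final 0.05% Triton X-100, 1% formaldehyde and 1 ug/ml Hoechst fixed the cells and stained nuclei 5 days after treatment. Lung cancer cell lines in 1536-well plates had been treated by pin tool the day after seeding with one drug alone or a fixed anchor-drug dose plus five library-drug doses (not always all listed) in √10 steps, and nuclei were counted on 4× images. Relative viability is the ratio of nuclei in treated wells to nuclei in vehicle wells, taken as the median of duplicate plates.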

[2] = compound: Cn1cc(-c2cnn3c(N)c(Br)c([C@@H]4CCCNC4)nc23)cn1 + CC(C)C[C@H](NC(=O)[C@H](Cc1ccccc1)NC(=O)c1cnccn1)B(O)O [Bortezomib] (partner 0.002 µM)
Method in brief: as §1

[3] = compound: Cn1cc(-c2cnn3c(N)c(Br)c([C@@H]4CCCNC4)nc23)cn1 + O=C(c1cc(Cc2n[nH]c(=O)c3ccccc23)ccc1F)N1CCN(C(=O)C2CC2)CC1 [Olaparib] (partner 8 µM)
Method in brief: as §1

[4] = compound: Cn1cc(-c2cnn3c(N)c(Br)c([C@@H]4CCCNC4)nc23)cn1 + Nc1nc2[nH]cc(CCc3ccc(C(=O)N[C@@H](CCC(=O)O)C(=O)O)cc3)c2c(=O)[nH]1 [Pemetrexed] (partner 0.2 µM)
Method in brief: as §1

Cell Line | relative viability ([1]; first compound 0.05 µM) | relative viability ([1]; first compound 0.1581 µM) | relative viability ([1]; first compound 0.5 µM) | relative viability ([1]; first compound 1.581 µM) | relative viability ([1]; first compound 5 µM) | relative viability ([2]; first compound 0.05 µM) | relative viability ([2]; first compound 0.1581 µM) | relative viability ([2]; first compound 0.5 µM) | relative viability ([2]; first compound 1.581 µM) | relative viability ([2]; first compound 5 µM) | relative viability ([3]; first compound 0.05 µM) | relative viability ([3]; first compound 0.1581 µM) | relative viability ([3]; first compound 0.5 µM) | relative viability ([3]; first compound 1.581 µM) | relative viability ([3]; first compound 5 µM) | relative viability ([4]; first compound 0.05 µM) | relative viability ([4]; first compound 0.1581 µM) | relative viability ([4]; first compound 0.5 µM) | relative viability ([4]; first compound 1.581 µM) | relative viability ([4]; first compound 5 µM)
LC-2-ad | 0.873 | 1.04 | 0.837 | 0.917 | 0.838 | 1.03 | 1.15 | 0.938 | 1.06 | 0.935 | 0.753 | 0.686 | 0.648 | 0.727 | 0.726 | 0.293 | 0.295 | 0.265 | 0.25 | 0.239
LCLC-97TM1 | 0.188 | 0.299 | 0.23 | 0.228 | 0.189 | 0.318 | 0.546 | 0.626 | 0.333 | 0.204 | 0.346 | 0.605 | 0.327 | 0.382 | 0.38 | 0.172 | 0.185 | 0.189 | 0.171 | 0.126
LCLC-103H | 0.957 | 0.962 | 0.867 | 1.05 | 0.847 | 1.03 | 1.2 | 1.18 | 0.841 | 1.16 | 0.842 | 0.804 | 0.77 | 0.746 | 0.711 | 0.539 | 0.463 | 0.482 | 0.428 | 0.298
LOU-NH91 | 0.721 | 0.664 | 0.695 | 0.658 | 0.561 | 0.504 | 0.492 | 0.513 | 0.442 | 0.481 | 0.938 | 0.933 | 0.867 | 0.774 | 0.778 | 0.398 | 0.289 | 0.254 | 0.25 | 0.64
LU99A | 0.534 | 0.541 | 0.492 | 0.491 | 0.388 | 1.16 | 1.25 | 1.05 | 1.14 | 0.679 | 0.244 | 0.235 | 0.236 | 0.221 | 0.163 | 0.19 | 0.144 | 0.139 | 0.124 | 0.129
LXF-289 | 1.08 | 1.14 | 1.01 | 1.01 | 1.06 | 1.01 | 1.09 | 0.978 | 0.88 | 0.994 | 1.17 | 1.27 | 1.04 | 1.17 | 1.31 | 0.985 | 0.953 | 0.823 | 0.779 | 0.645
NCI-H23 | 0.741 | 0.717 | 0.613 | 0.667 | 0.227 | 1.08 | 1.28 | 1.01 | 0.473 | 0.239 | 0.283 | 0.286 | 0.229 | 0.227 | 0.174 | 0.582 | 0.539 | 0.504 | 0.275 | 0.19
NCI-H322M | 0.765 | 0.799 | 0.863 | 0.756 | 0.678 | 1.2 | 1.32 | 1.22 | 1.21 | 1.26 | 0.323 | 0.704 | 0.775 | 0.635 | 0.418 | 0.602 | 0.548 | 0.561 | 0.49 | 0.363
NCI-H441 | 0.859 | 1.15 | 0.856 |  | 0.852 | 1.05 | 0.585 | 0.87 |  | 0.448 | 0.672 | 0.697 | 0.494 | 0.37 | 0.43 | 0.261 | 0.283 | 0.254 | 0.277 | 0.25
NCI-H460 | 0.59 | 0.459 | 0.509 | 0.155 | 0.0851 | 0.993 | 1.74 | 0.792 | 0.401 | 0.529 | 0.341 | 0.195 | 0.38 | 0.233 | 0.127 | 0.0569 | 0.0582 | 0.0504 | 0.0664 | 0.0552
NCI-H520 | 0.86 | 0.887 | 0.763 | 0.64 | 0.785 | 0.702 | 0.609 | 0.385 | 0.471 | 0.344 | 0.353 | 0.367 | 0.302 | 0.326 | 0.236 | 0.596 | 0.584 | 0.554 | 0.452 | 0.296
NCI-H596 | 0.939 | 0.498 | 0.47 | 0.494 | 0.478 | 1.06 | 0.964 | 0.9 | 0.804 | 1.02 | 0.633 | 0.596 | 0.622 | 0.655 | 0.621 | 0.481 | 0.462 | 0.534 | 0.371 | 0.326
NCI-H647 | 1.16 | 1 | 1.05 | 0.331 | 0.444 | 1.15 | 1.05 | 0.648 | 0.696 | 0.38 | 0.686 | 0.64 | 0.332 | 0.202 | 0.12 | 0.174 | 0.104 | 0.104 | 0.114 | 0.0596
NCI-H650 | 1.16 | 1.22 | 1.23 | 1.05 | 0.858 | 0.717 | 0.748 | 0.69 | 0.773 | 0.603 | 0.427 | 0.557 | 0.523 | 0.551 | 0.397 | 0.893 | 0.93 | 0.92 | 0.919 | 0.63
NCI-H661 | 0.596 | 0.611 | 0.521 | 0.667 | 0.297 | 0.805 | 0.781 | 0.698 | 0.731 | 0.587 | 0.874 | 0.83 | 0.745 | 0.511 | 0.538 | 0.98 | 0.635 | 0.667 | 0.754 | 0.588
NCI-H838 | 1.08 | 1.16 | 0.94 | 0.784 | 1.02 | 0.918 | 0.845 | 0.83 | 0.701 | 0.551 | 0.79 | 0.911 | 0.797 | 0.611 | 0.648 | 0.229 | 0.168 | 0.175 | 0.17 | 0.151
NCI-H1355 | 0.797 | 0.875 | 0.819 | 0.849 | 0.825 | 1.23 | 1.33 | 1.17 | 1.15 | 1.24 | 0.811 | 0.89 | 0.788 | 0.795 | 0.69 | 0.978 | 1.16 | 1.11 | 1.08 | 0.88
NCI-H1437 | 1.05 | 1.02 | 0.795 | 0.576 | 0.761 | 0.515 | 0.581 | 0.577 | 0.432 | 0.316 | 0.664 | 0.726 | 0.71 | 0.646 | 0.595 | 0.294 | 0.226 | 0.248 | 0.172 | 0.194
NCI-H1651 | 1.08 | 1 | 1.01 | 0.479 | 0.434 | 0.914 | 0.954 | 0.89 | 0.898 | 0.56 | 0.17 | 0.146 | 0.166 | 0.164 | 0.145 | 0.549 | 0.406 | 0.559 | 0.32 | 0.198
NCI-H1666 | 1.02 | 1.01 | 0.853 | 0.807 | 0.785 | 1.09 | 0.804 | 0.786 | 0.802 | 0.721 | 0.777 | 0.797 | 0.7 | 0.716 | 0.741 | 0.837 | 0.826 | 0.749 | 0.63 | 0.658
NCI-H1734 | 0.708 | 0.695 | 0.626 | 0.596 | 0.58 | 1.02 | 1.13 | 0.798 | 0.865 | 0.746 | 0.625 | 0.647 | 0.52 | 0.599 | 0.441 | 0.411 | 0.384 | 0.347 | 0.307 | 0.265
NCI-H1755 | 1.03 | 1.05 | 0.817 | 0.873 | 0.879 | 1.04 | 1.03 | 0.952 | 0.879 | 0.711 | 0.964 | 0.989 | 0.931 | 0.989 | 0.847 | 0.398 | 0.397 | 0.401 | 0.373 | 0.272
NCI-H1792 | 0.883 | 0.887 | 0.411 | 0.408 | 0.488 | 0.801 | 1.1 | 0.703 | 0.551 | 0.371 | 0.637 | 0.368 | 0.378 |  | 0.34 | 0.847 | 1.19 | 0.795 |  | 0.55
NCI-H1915 | 1.01 | 1.08 | 1.03 | 1.08 | 1.1 | 1.14 | 1.01 | 1.06 | 0.784 | 1.03 | 0.312 | 0.268 | 0.299 | 0.261 | 0.236 | 0.545 | 0.435 | 0.422 | 0.372 | 0.358
NCI-H1975 | 0.685 | 0.681 | 0.655 | 0.404 | 0.525 | 0.444 | 0.403 | 0.296 | 0.32 | 0.31 | 0.841 | 0.792 | 0.7 | 0.581 | 0.708 | 0.304 | 0.25 | 0.249 | 0.261 | 0.189
NCI-H1993 | 0.632 | 0.7 |  | 0.66 | 0.708 | 1.09 | 1.16 |  | 0.931 | 0.846 | 0.959 | 1.05 | 1.01 | 0.969 | 1.1 | 0.572 | 0.595 | 0.693 | 0.482 | 0.575
NCI-H2009 | 1.17 | 1.25 | 1.09 | 1.09 | 0.849 | 1.01 | 1.06 | 0.972 | 0.834 | 0.826 | 0.685 | 0.749 | 0.714 | 0.872 | 0.595 | 1.01 | 1.02 | 0.99 | 0.895 | 0.683
